From patent publication US20230140926A1, “IONIC LIQUID, SOLVENT, PREPARATION, AND TRANSDERMALLY ABSORBABLE AGENT” (Kyushu University, National University Corporation, priority 2020, published 2023)

Legend:
[1] = tested on: stratum corneum; experiment: Influence on stratum corneum of skin (FTIR); parameters: species or system pig; details: for Absorbance; CH2 asymmetric / Absorbance; CH2 symmetric / shift (cm^−1), CH2 asymmetric / shift (cm^−1), CH2 symmetric / shift (intensity), CH2 asymmetric / shift (intensity), CH2 symmetric: stratum corneum lipid; for Absorbance; CH2 asymmetric / Absorbance; CH2 symmetric / Absorbance; C═O amide-II / Absorbance; NH—C═O amide-I: FTIR, 30 minutes immersion; for shift (cm^−1), CH2 asymmetric / shift (cm^−1), CH2 symmetric / shift (intensity), CH2 asymmetric / shift (intensity), CH2 symmetric / shift (cm^−1), C═O amide-II / shift (cm^−1), NH—C═O amide-I / shift (intensity), C═O amide-II / shift (intensity), NH—C═O amide-I: versus untreated control; for Absorbance; C═O amide-II / Absorbance; NH—C═O amide-I / shift (cm^−1), C═O amide-II / shift (cm^−1), NH—C═O amide-I / shift (intensity), C═O amide-II / shift (intensity), NH—C═O amide-I: stratum corneum protein
Description: Frozen skin of a pig (YMPC, Hoshino Test Animal Breeding Co., Ltd.) was returned to room temperature, dried skin was warmed at 60° C. for from 60 to 120 seconds, and the epidermal layer was peeled from the skin. […] The isolated stratum corneum was washed with water and dried for an additional 24 hours. Sections of stratum corneum were immersed in test samples (IPM, Ionic Liquids 1, 2, 4, tween-80, DGME or PBS) in glass tubes for 30 minutes at room temperature. Stratum corneum sheets were washed with 20% ethanol and dried for 1 hour. The stratum corneum sheets were analyzed by Fourier transform infrared spectroscopy (FTIR) spectroscopy. Untreated stratum corneum was used as a control.

[2] = Evaluation of solubility of ionic liquids in a variety of solvents (visual); format: physicochemical; details: 50:50 by weight, room temperature
Description: The solubility of ionic liquids in a variety of solvents was evaluated at room temperature. Specifically, Ionic Liquids 1 to 3 were placed in a glass tube with respective solvents and mixed by stirring with a vortex mixer for from 1 to 2 minutes. The ratio of Ionic Liquids 1 to 3 to the corresponding solvents was 50:50 by weight. The solubility and transparency of the obtained liquids (liquid samples) were visually observed and evaluated according to the following criteria.
∘: Ionic liquid is dissolved uniformly and the clarity of the liquid sample is high
Δ: Ionic liquid is uniformly dissolved, but liquid sample is cloudy
×: Ionic liquid and solvent are separated, and the ionic liquid is not dissolved in the solvent. The same evaluation was performed for intermediate 2 ([EDMPC][Cl]) as a comparison.

| Compound | Absorbance; CH2 asymmetric [1] [cm⁻¹] | Absorbance; CH2 symmetric [1] [cm⁻¹] | shift (cm^−1), CH2 asymmetric [1] [cm⁻¹] | shift (cm^−1), CH2 symmetric [1] [cm⁻¹] | shift (intensity), CH2 asymmetric [1] | shift (intensity), CH2 symmetric [1] | Absorbance; C═O amide-II [1] [cm⁻¹] | Absorbance; NH—C═O amide-I [1] [cm⁻¹] | shift (cm^−1), C═O amide-II [1] [cm⁻¹] | shift (cm^−1), NH—C═O amide-I [1] [cm⁻¹] | shift (intensity), C═O amide-II [1] | shift (intensity), NH—C═O amide-I [1] | Solubility and transparency in Dimethyl sulfoxide ([2]; solvent Dimethyl sulfoxide) | Solubility and transparency in Ethanol ([2]; solvent Ethanol) | Solubility and transparency in Isopropyl alcohol ([2]; solvent Isopropyl alcohol) | Solubility and transparency in Isopropyl myristate ([2]; solvent Isopropyl myristate) |
| --- | --- | --- | --- | --- | --- | --- | --- | --- | --- | --- | --- | --- | --- | --- | --- | --- |
| CCOCCOCCO [DGME, diethylene glycol monoethyl ether] | 2918 | 2853 | 0 | 2 | 2.37 | 1.25 | 1648 | 1541 | 1 | 4 | 18.00 | 14.31 | – | – | – | – |
| CCCCCCCCCCCCCC(=O)OC(C)C [IPM, isopropyl myristate] | 2920 | 2853 | 2 | 2 | 1.72 | 1.08 | 1648 | 1539 | 1 | 2 | 13.95 | 10.59 | – | – | – | – |
| CCCCCCCCCCCCCC(=O)OC[C@H](COP(=O)(OCC)OCC[N+](C)(C)C)OC(=O)CCCCCCCCCCCCC (stereo partly shown) [Intermediate 2, EDMPC chloride] | – | – | – | – | – | – | – | – | – | – | – | – | ◯ | ◯ | ◯ | ◯ |
| tween-80 | 2920 | 2853 | 2 | 2 | 2.80 | 1.30 | 1648 | 1542 | 1 | 5 | 19.01 | 16.14 | – | – | – | – |
